Reference: patent publication US11529302B2, “Composition, artificial nail composition, nail decoration material, artificial nail, stored container, image forming apparatus, and image forming method” (RICOH COMPANY, LTD., priority 2018, dated 2022)

Test: Solubility of polymerization initiator in the acrylamide compound having an ester structure
Assay type: physicochemical

- solubility in the acrylamide compound having an ester structure: poor solubility
Structure (SMILES): Cc1cc(C)c(C(=O)P(=O)(C(=O)c2c(C)cc(C)cc2C)c2ccccc2)c(C)c1 [B2-1, Bis(2,4,6-trimethylbenzoyl) phenyl phosphine oxide]
